This passage reports IC50 results from ChEMBL document CHEMBL1134868, “Phosphonate and phosphinate analogues of N-acylated gamma-glutamylglutamate. potent inhibitors of glutamate carboxypeptidase II” (Bioorg Med Chem Lett, 2002).

A word on the IC50: it is the concentration needed to halve the response being measured.

In experiment [1] the target is Glutamate carboxypeptidase 2 (Rattus norvegicus, UniProt P70627). The experiment can be described thus: Compound was evaluated for its ability to inhibit Glutamate carboxypeptidase-II using N-acetyl-L-aspartyl-[3H]L-glutamate as substrate.
Experiment [2] has as its target T1, Folylpolyglutamate synthase, mitochondrial (Homo sapiens, UniProt Q05932).
T1 sequence (Q05932 whole entry): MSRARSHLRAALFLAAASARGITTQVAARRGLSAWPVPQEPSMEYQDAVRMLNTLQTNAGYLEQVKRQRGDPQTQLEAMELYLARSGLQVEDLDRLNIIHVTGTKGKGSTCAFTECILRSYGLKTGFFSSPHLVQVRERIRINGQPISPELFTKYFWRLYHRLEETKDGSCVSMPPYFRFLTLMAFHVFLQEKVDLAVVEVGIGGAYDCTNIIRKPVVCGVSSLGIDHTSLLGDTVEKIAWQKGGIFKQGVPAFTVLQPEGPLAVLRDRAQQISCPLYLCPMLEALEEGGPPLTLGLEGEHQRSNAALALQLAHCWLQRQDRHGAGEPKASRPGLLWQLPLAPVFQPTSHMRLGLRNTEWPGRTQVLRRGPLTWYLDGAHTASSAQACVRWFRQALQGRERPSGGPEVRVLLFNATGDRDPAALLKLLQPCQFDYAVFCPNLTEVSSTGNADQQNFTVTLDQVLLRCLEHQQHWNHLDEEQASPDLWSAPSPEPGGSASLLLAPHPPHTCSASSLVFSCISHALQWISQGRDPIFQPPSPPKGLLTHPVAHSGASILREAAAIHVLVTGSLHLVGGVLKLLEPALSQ
The experiment can be described thus: Compound was evaluated for its ability to inhibit Folyl-poly-gamma-glutamyl synthetase.

Experiment [3] in a line: Compound was evaluated for its ability to inhibit Gamma glutamylhydroxylase.

Glutamate carboxypeptidase 2, sequence (P70627 whole entry): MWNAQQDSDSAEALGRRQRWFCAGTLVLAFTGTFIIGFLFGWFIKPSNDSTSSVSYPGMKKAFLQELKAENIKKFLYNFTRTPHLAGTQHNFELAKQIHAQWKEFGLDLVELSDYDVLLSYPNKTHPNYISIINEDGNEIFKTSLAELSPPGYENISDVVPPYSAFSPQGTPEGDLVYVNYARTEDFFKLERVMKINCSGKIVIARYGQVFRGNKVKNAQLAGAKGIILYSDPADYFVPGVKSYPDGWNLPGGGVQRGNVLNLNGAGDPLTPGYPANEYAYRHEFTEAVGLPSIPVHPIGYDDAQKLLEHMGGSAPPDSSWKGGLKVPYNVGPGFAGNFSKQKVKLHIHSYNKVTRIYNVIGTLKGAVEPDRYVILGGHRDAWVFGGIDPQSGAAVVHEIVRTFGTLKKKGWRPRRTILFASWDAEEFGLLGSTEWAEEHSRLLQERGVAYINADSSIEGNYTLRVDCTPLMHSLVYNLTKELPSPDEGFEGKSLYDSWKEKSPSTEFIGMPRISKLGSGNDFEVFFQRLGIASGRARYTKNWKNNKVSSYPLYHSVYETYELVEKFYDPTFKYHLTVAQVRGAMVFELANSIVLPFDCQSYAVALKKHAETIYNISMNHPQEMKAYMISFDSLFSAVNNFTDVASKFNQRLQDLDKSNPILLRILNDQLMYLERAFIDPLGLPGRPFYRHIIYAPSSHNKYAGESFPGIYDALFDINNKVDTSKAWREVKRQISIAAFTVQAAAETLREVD

Consider `CNc1ccc(C(=O)N[C@@H](CCP(=O)(O)O[C@@H](CCC(=O)O)C(=O)O)C(=O)O)cc1`, for which the IC50 in experiment [1] was found to be 4 nM; in experiment [2] it was 5700 nM.
As for `CN(Cc1cnc2nc(N)nc(N)c2n1)c1ccc(C(=O)NC(CCP(=O)(O)OC(CCC(=O)O)C(=O)O)C(=O)O)cc1` (stereo not given), the IC50 in experiment [1] worked out at 5 nM; in experiment [2], 20 nM.
With `CN(Cc1cnc2nc(N)nc(N)c2n1)c1ccc(C(=O)N[C@@H](CCP(=O)(O)O[C@@H](CCC(=O)O)C(=O)O)C(=O)O)cc1`, the IC50 in experiment [3] is over 200000 nM; in experiment [1], 4 nM; in experiment [2], 120 nM.
For `Nc1ccc(C(=O)N[C@@H](CCP(=O)(O)O[C@@H](CCC(=O)O)C(=O)O)C(=O)O)cc1`, the IC50 in experiment [3] is over 200000 nM; in experiment [1] it was 3 nM; in experiment [2] it was 8600 nM.
